Earlier results in patent publication US20140303227A1, “TRANSMUCOSAL HORMONE DELIVERY SYSTEM” (Pharmaceutical Productions Inc., priority 2013, published 2014).

Conditions: pH 6.8

## CN1CCCC1c1cccnc1 (stereo not shown) [nicotine]
  nicotine in the free base form: about 10%
